# Measurements: patent US20220040123A1, “ANTI-HELICOBACTER FOOD COMPOSITION COMPRISING BETA-CARYOPHYLLENE” (priority 2018, published 2022)
# Assays:
# [1] = tested on: Helicobacter pylori; assay: RT-PCR of H. pylori-specific 16S rRNA in stomach tissue of infected animals; format: in vivo, Mongolian gerbils; details: groups treated with 100 mg/kg and 500 mg/kg
# Description: (§1) Mongolian gerbils were infected with a Helicobacter pylori strain (ATCC 49503) and then subjected to two weeks of acclimatization. To this end, the animals were fasted for 12 hours before and after inoculation with the Helicobacter pylori strain. 500 μl (1×10^9 CFU) of a bacterial suspension was prepared by suspending H. pylori in sterile physiological saline to a concentration of 2×10^9 CFU/ml and introduced directly into the stomach by using a feeding needle. For stable infection, the H. pylori strain was dispensed three times at 48 hour-intervals.
# (§2) Beta-caryophyllene was administered directly into the gastrointestinal at doses of 100 mg/kg and 500 mg/kg for the low and high dose groups, respectively, for 12 weeks after two weeks after infection with H. pylori. The same amount of corn oil as the beta-caryophyllene was administered to each of the non-infected group and the infected group.
# To confirm H. pylori infection, the stomach tissues of the four animal groups prepared in the H. pylori-infected animal preparation process shown in Experimental Example 2 were subjected to RT-PCR in order to examine whether H. pylori-specific 16S rRNA would be detected.
# [2] = tested on: urease A and urease B; assay: Expression of urease protein in H. pylori; format: cell-based, Helicobacter pylori; details: 125, 250 and 500 μg/ml, all treatment concentrations
# Description: In order to evaluate the effect of beta-caryophyllene treatment on the inhibition of H. pylori urease, H. pylori was treated with beta-caryophyllene at concentrations of 125, 250 and 500 μg/ml, and changes in the expression of urease protein were analyzed, and the results are shown in FIG. 7.
# [3] = tested on: Helicobacter pylori 16S rRNA; assay: qPCR test for gastric mucosal Helicobacter pylori (16S rRNA); format: in vivo, C57BL/6 mouse; details: for Gene expression level (Ct): 28 days, 16S rRNA vs 18SrRNA, control G3 13.80
# Description: In order to compare the Helicobacter pylori eradiation effect between beta-caryophyllene and the antibiotics that are used for treatment of Helicobacter pylori infection, an animal test was performed using the test groups and doses shown in Table 1 below.
# Each test substance was suspended in an excipient according to the dose and administered to each mouse once a day at the same time every day for a total of 28 days in a dose of 5 ml per kg mouse (C57BL/6 mouse) by oral gavage method.
# After completion of the test, RNA was collected from the aseptically collected gastric mucosal tissue, and then synthesized into DNA to perform a PCR test. The marker gene used in this experiment was 16S rRNA, which is specifically found only in H. pylori and is not found in humans or mice. 18SrRNA was used as a loading control gene of the used DNA sample. The Ct value for each gene was obtained by reacting the fluorescent intercalator SYBR Green with the corresponding primer and DNA, and then calculated by relative quantification, and the results are shown in Table 4 below.
# [4] = tested on: Helicobacter pylori; assay: Immunohistochemical staining of gastric mucosa and submucosal layer with Helicobacter pylori-specific antibody; format: in vivo, Mongolian gerbils
# Description: as §1, §2
# At weeks 0, 6 and 12 of the experiment, a paraffin block was prepared from with the stomach tissue of the infected animal model, and then stomach tissue slide sample with a thickness of 2 μm was prepared from the paraffin block using a microtome (Leica). For immunohistochemical staining, the slide was deparaffinized, heated with citrate buffer in a bath for 20 minutes, and then subjected to immunohistochemical staining using an IHC kit (Vectastain ABC kit, Vector). […]
# [5] = tested on: Helicobacter pylori-infected people; assay: Human test, changes in digestive system symptoms; format: in vivo; details: 8 weeks
# Description: In order to verify the anti-Helicobacter pylori effect of beta-caryophyllene, beta-caryophyllene was administered to 16 semi-healthy people (Helicobacter pylori-infected people) complaining of gastrointestinal disorders, at a dose of 126 mg/day once a day for 8 weeks before meals, and changes in digestive system symptoms (nausea, epigastric pain, heartburn, acid regurgitation, and indigestion) were evaluated, and the results are shown in Table 5.
# [6] = tested on: H. pylori; assay: Minimum growth inhibitory concentration test (absorbance at 650 nm after 72 hours); format: cell-based, Helicobacter pylori (ATCC 49503); details: Mueller Hinton broth with 10% bovine serum, absorbance 650 nm
# Description: For H. pylori culture, an H. pylori (ATCC 49503) strain was inoculated on a Brucella agar medium containing 10% bovine serum and antibiotics (vancomycin, esfsuldin, trimethoprim, and amphotericin B), and cultured in an anaerobic incubator which maintains 10% CO2, 5% O2, 85% N2, and 97% or more humidity, at 37° C. for 72 hours. For a minimum growth inhibitory concentration test, each of 7.81, 15.63, 31.25, 62.5, 125, 250 and 500 μg and 1, 2 and 4 mg of beta-caryophyllene was added to a medium obtained by adding 10% bovine serum to Mueller Hinton broth, and then cultured in a CO2 incubator at a relative humidity of 100% for 72 hours. Each of the bacterial solutions cultured for 72 hours was measured for absorbance at 650 nm using a spectrophotometer to determine the minimum inhibitory concentration (MIC) of beta-caryophyllene, and the results are graphically shown in FIG. 2.
# [7] = 126 mg/day, after vs before intake
smiles,measurement,setting,value
C=C1CC/C=C(\C)CC[C@@H]2[C@@H]1CC2(C)C [beta-caryophyllene],Helicobacter pylori eradication rate,"[1]; first value, week 6 (or 100 mg/kg; wording ambiguous)",90.4%
same,Helicobacter pylori eradication rate,"[1]; second value, week 12 (or 500 mg/kg; wording ambiguous)",95.8%
same,expression of urease A (Urease α),[2],significantly decreased
same,expression of urease B (Urease β),[2],significantly decreased
same,Gene expression level (Ct),[3]; G6: 100 mg/kg/day,11.99 Ct
same,decrease of Ct value compared to G3,"[3]; G6: 100 mg/kg/day, not statistically significant",13.1%
same,Gene expression level (Ct),[3]; G7: 200 mg/kg/day,9.40 Ct
same,decrease of Ct value compared to G3,"[3]; G7: 200 mg/kg/day, not statistically significant",31.9%
same,Gene expression level (Ct),[3]; G8: 500 mg/kg/day,5.71 Ct
same,decrease of Ct value compared to G3,"[3]; G8: 500 mg/kg/day, statistically significant",58.6%
same,Helicobacter pylori infection in gastric mucosa and submucosal layer (IHC),"[4]; week 6, low dose (100 mg/kg) and high dose (500 mg/kg) groups vs infected group",significantly decreased
same,Helicobacter pylori detection in gastric mucosa (IHC),"[4]; week 12, low dose (100 mg/kg) and high dose (500 mg/kg) groups vs infected group",hardly detected
same,"Nausea, After intake","[5]; 126 mg/day once a day, 16 people, before intake 0.19",0.06
same,"Acid regurgitation, After intake","[5]; 126 mg/day once a day, 16 people, before intake 0.25",0.06
same,"Indigestion, After intake","[5]; 126 mg/day once a day, 16 people, before intake 0.56",0.13
same,"Heartburn, After intake","[5]; 126 mg/day once a day, 16 people, before intake 0.88",0.38
same,"Epigastric pain, After intake","[5]; 126 mg/day once a day, 16 people, before intake 1.31",0.44
same,"Acid regurgitation, Improvement rate (%)",[5]; [7],76%
same,"Epigastric pain, Improvement rate (%)",[5]; [7],66.4%
same,"Heartburn, Improvement rate (%)",[5]; [7],56.8%
same,"Indigestion, Improvement rate (%)",[5]; [7],76.8%
same,"Nausea, Improvement rate (%)",[5]; [7],68.4%
same,improvement of Helicobacter pylori-induced gastrointestinal disorders,"[5]; 126 mg/day, all five symptoms of Table 5",≥ 56%
same,minimum inhibitory concentration (MIC) against H. pylori,[6],1 mg
